The values that follow come from US11957766B2, “HNQO1-activatable fluorescent probe for imaging cancer cells in-vitro and in-vivo” (Texas Tech University System, priority 2019, dated 2024).

The structures appear in SMILES notation.

Data set [1] relates to IMR90, HUVEC cells. Kind of data set: Fluorescence microscopy of NIR-ASM in NQO1 non-expressing normal cells. The format is cell-based, human. The following applies: 10 μM, 60 min. The procedure:
(§1) Detection of NQO1 in live cells. Inspired by the excellent biocompatibility, the inventors investigated its performance in both NQO1 expressing cancer cells (A549, H460) and NQO1 non-expressing normal cells (IMR90, HUVEC). All cells were incubated with NIR-ASM (10 μM) for 60 min, washed with PBS and were imaged under a confocal microscope after counterstaining the nuclei with Hoechst 33342 (FIG. 12A). […] The higher expression of NQO1 protein in A549 and H460 cells and its absence in normal cells, IMR90 and HUVEC as found with western blot analysis correlated with the probe reactivity in cells (FIG. 12B). […] Cell sorting using flow cytometry is a well-established technology in clinical diagnostics and biomedical research. To assess the applicability of the NIR-ASM to rapidly detect and quantify in both cancer and normal cells based on NQO1 expression, the probe was incubated with cell suspensions for 60 min, and about 1×10^4 cells were analyzed on a flow cytometer.
Fluorescence imaging. Both cancer and normal cells were seeded into 6-well plates and cultured overnight in respective media at 37° C. Cells were treated with 10 μM NIR-ASM and incubated at 37° C. for 60 min. They were then treated with nuclear stain Hoechst 33342 for 5 min. Finally, the medium was replaced with PBS and the live cells were imaged using a multiphoton confocal fluorescence microscope (λex/em=488/644 nm). […]

The subject of data set [2] is IMR90 and HUVECs. The data set can be described thus: Flow cytometry of NIR-ASM in NQO1-negative normal cell lines. The format is cell-based, human. On the procedure:
as §1
Flow cytometry analysis. The endogenous NQO1 activity of cancer cells and normal cells was determined by flow cytometry after NIR-ASM exposure. Cells were incubated with 10 μM of NIR-ASM for 60 min, harvested by trypsinization and washed with PBS. For inhibitor study, cells were pretreated with NQO1 inhibitor ES936 (100 nM) for 6 h before adding the NIR-ASM. About 1×10^4 cells were analyzed by flow cytometry (λex=488 nm).

Data set [3] in a line: NIR-ASM tolerability and toxicity in vivo. The arrangement: species or system CD1 mice. The following applies: 5 mg/kg five times a week for five weeks. The procedure: Assessment of NIR-ASM biocompatibility. Inspired by the excellent photophysical properties of NIR-ASM in monitoring the NQO1 activity in vitro, the inventors determined the biocompatibility of NIR-ASM both in vitro and in vivo before using for endogenous applications. […] Further, to evaluate NIR-ASM tolerability and toxicity in vivo, CD1 mice were grouped for the administration of vehicle (PEG:H2O:EtOH) alone or 5 mg/kg of NIR-ASM five times a week for five weeks. The average mouse weights were monitored as a surrogate marker to the toxicity.
Hematoxylin and eosin (H&E) staining. The hematoxylin and eosin staining were performed as described previously. Briefly, freshly dissected tissues were snap freeze and store at −20° C. for overnight. Frozen tissues were cut into […] slices, the sections were stained in Mayer's Hematoxylin and Eosin solution. Finally, the sections were dehydrated and mounted with Permount in a fume hood. The results were analyzed under a phase-contrast Olympus microscope (Olympus America Inc).

For data set [4], the target named is NQO1 (Homo sapiens, UniProt P15559). Kind of data set: Fluorescent response of NIR-ASM towards NQO1. The format is biochemical. Also noted: purchased Sigma-Aldrich D1515. The procedure: Fluorescent response of NIR-ASM towards NQO1. To unequivocally establish that NIR-ASM is a highly specific sensor for NQO1, the inventors first investigated its spectral properties were systematically studied in simulated physiological conditions 0.1% BSA containing PBS, BSA used as a stabilizing agent, pH 7.4) at 37° C., and the results are given in FIGS. 9D and 9E. […] However, upon addition of NQO1, the absorption at 403 nm disappears and a prominent absorption at 465 nm emerges; Along with the bathochromic shift of UV/Vis absorption, a distinct color change from yellow to red was observed after 30 min of incubation with NQO1. […] However, the reaction of the probe with NQO1 produced a strong fluorescence emission band at 646 nm with a large Stokes shift ([…]) (FIG. 9F), which is highly advantageous for bioimaging analysis, because of non-overlapping excitation and emission wavelengths. Next, the fluorescence response of NIR-ASM to NQO1 at varying concentrations (0-2.5 μg/mL) was studied. […] Also, the fluorescence enhancement was directly proportional to the enzyme concentration in the range of 0.125-2.5 μg/mL (R^2=0.9919, FIG. 9G). The NQO1 detection limit (LOD) of NIR-ASM was calculated to be as low as 0.191 μg/mL, based on the standard deviation of the response (Sy) and the slope of the calibration curve (S) according to the formula: LOD=3.3(Sy/S).
Spectroscopic measurements. NIR-ASM was dissolved with DMSO to prepare a stock solution, which was then diluted with enzyme reaction buffer (PBS containing 2.5 μg/mL, 100 μM NADH and 0.1% BSA) to prepare different concentrations of the probe for UV/Vis and fluorescence measurement. Time-dependent fluorescence intensity changes for different concentrations of NIR-ASM in the presence of NQO1 (2.5 μg/mL) and 100 μM NADH were measured using Clear bottom 96 well black plate and microplate reader. Fluorescence (ex. 460 nm and em. 646 nm) was quantitated every minute for 90 min with 20 seconds of shaking in between intervals.

Sequence of NQO1 (P15559 whole entry): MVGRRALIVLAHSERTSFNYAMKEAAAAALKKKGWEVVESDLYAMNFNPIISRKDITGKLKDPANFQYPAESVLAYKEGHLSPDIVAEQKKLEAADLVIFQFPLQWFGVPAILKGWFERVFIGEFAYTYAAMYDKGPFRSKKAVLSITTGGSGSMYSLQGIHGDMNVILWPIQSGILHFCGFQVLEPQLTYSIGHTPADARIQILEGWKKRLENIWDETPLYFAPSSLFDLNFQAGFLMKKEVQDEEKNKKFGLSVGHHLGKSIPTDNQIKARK

For `CC1=C(C)C(=O)C(C(C)(C)CC(=O)Nc2ccc(/C=C/C3=CC(=C(C#N)C#N)CC(C)(C)C3)cc2)=C(C)C1=O` [NIR-ASM, (E)-N-(4-(2-(3-(dicyanomethylene)-5,5-dimethylcyclohex-1-en-1-yl)vinyl)phenyl)-3-methyl-3-(2,4,5-trimethyl-3,6-dioxocyclohexa-1,4-dien-1-yl)butanamide], the “fluorescence signal in normal cells” value in data set [1] is listed as “did not show any fluorescence”. The “flow cytometry fluorescence signal, negative normal cells” value in data set [2] (60 min, about 1×10^4 cells) is “minimal fluorescence”. Besides, the intracellular stability entry in data set [2] (sustained low fluorescence in normal cells) is given as “intracellular stability of NIR-ASM without any non-specific activation”. In addition, the “histological features (brain, heart, lung, liver, spleen, kidney; H&E)” value in data set [3] (versus control) is listed as “no significant differences”. In data set [3] (versus vehicle), the average body weights result is reported as “no remarkable changes”. In addition, the “enzyme concentration range in which fluorescence enhancement was directly proportional” value in data set [4] (100 μM NADH) is 0.125 to 2.5 µg/mL. Further, the “NQO1 detection limit (LOD)” value in data set [4] (LOD=3.3(Sy/S)) was determined as 0.191 µg/mL. The “time to maximum emission at 646 nm” value in data set [4] (NQO1 2.5 μg/mL) is recorded as 30 min. In addition, in data set [4] (after reaction with NQO1), the Stokes shift was 186 nm and the fluorescence emission band turned out to be 646 nm. This compound yielded an absorption band in data set [4] (before addition of NQO1, PBS 0.1% BSA pH 7.4, 37° C.) of 403 nm. The compound further yielded an absorption in data set [4] (upon addition of NQO1) of 465 nm.
